# Laboratory results from article PMC10165928 (Journal of Enzyme Inhibition and Medicinal Chemistry, 2023).
# Entries after “also recorded” stand apart in the source; their conditions may differ.
# Experiments:
# HDAC1 = HDAC1 (Homo sapiens, UniProt Q13547); assay: In vitro HDAC1 inhibition assay; type: biochemical; settings: for IC50 HDAC1: mean ± SEM of three independent assays, NA: IC50 not apparent even with the compound tested >10 μM; for SI (selectivity index): ratio of IC50 of HDAC6 divided by that of HDAC1
# [1] = tested on: colon cancer HCT-116 cells; assay: MTT cell growth inhibition assay, HCT-116; type: cell-based, human; settings: for IC50: Homo sapiens, HCT-116, 72 h, read-out: IC50 HCT-116 cells
# [2] = tested on: promyelocytic leukaemia HL-60 cells; assay: MTT cell growth inhibition assay, HL-60; type: cell-based; settings: Homo sapiens, HL-60, 72 h, read-out: IC50 HL-60 cells
# HDAC6 = molecular target: T1, HDAC6 (Homo sapiens, UniProt Q9UBN7); assay: In vitro HDAC6 inhibition assay; type: biochemical; settings: mean ± SEM of three independent assays; NA: IC50 not apparent even with the compound tested >10 μM
# T1 sequence (Q9UBN7 1-1215): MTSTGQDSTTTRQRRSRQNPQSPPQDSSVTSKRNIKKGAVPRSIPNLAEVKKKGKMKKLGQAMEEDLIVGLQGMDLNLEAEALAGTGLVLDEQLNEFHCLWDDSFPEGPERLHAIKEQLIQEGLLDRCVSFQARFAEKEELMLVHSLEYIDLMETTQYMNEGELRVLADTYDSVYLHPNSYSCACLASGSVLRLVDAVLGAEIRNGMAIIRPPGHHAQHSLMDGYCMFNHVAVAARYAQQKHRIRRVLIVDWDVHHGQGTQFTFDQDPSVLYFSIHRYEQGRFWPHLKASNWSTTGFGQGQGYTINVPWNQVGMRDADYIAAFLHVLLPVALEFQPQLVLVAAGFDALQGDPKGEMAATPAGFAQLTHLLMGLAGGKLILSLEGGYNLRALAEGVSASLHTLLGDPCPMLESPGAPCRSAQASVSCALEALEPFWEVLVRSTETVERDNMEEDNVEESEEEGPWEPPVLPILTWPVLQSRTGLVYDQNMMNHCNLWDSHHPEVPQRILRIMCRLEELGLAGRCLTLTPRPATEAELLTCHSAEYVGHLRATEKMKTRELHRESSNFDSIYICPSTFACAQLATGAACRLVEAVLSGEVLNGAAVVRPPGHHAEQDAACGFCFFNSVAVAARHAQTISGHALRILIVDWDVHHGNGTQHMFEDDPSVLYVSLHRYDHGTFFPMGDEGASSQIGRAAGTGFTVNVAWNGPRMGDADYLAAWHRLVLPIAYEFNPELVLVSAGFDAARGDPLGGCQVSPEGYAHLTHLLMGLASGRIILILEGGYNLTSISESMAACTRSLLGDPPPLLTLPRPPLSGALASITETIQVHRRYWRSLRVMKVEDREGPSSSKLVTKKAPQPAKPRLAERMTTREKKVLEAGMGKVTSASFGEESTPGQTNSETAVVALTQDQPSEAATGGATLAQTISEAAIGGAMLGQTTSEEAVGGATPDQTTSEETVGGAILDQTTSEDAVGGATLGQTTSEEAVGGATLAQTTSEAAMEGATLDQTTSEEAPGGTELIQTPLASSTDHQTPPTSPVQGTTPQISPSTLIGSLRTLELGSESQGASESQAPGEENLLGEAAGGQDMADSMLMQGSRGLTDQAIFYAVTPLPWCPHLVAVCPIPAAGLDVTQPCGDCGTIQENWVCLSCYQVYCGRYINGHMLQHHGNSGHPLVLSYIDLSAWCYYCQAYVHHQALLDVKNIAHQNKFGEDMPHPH
# HDAC3 = HDAC3 (Homo sapiens, UniProt O15379); assay: In vitro HDAC3 inhibition assay; type: biochemical
# HL-60 cells [3] = assay: Cell cycle analysis by flow cytometry; type: cell-based, human; settings: HL-60, 48 h
# [4] = tested on: normal human liver L-O2 cells; assay: In vitro toxicity test; type: cell-based; settings: for IC50: Homo sapiens, L02, 72 h, read-out: IC50 L-O2 cells; for SI (selectivity index): ratio of IC50 of L-O2 cells divided by that of HL-60 cells
# HDAC10 = molecular target: T2, HDAC10 (Homo sapiens, UniProt Q969S8); assay: In vitro HDAC10 inhibition assay; type: biochemical
# T2 sequence (Q969S8 1-669): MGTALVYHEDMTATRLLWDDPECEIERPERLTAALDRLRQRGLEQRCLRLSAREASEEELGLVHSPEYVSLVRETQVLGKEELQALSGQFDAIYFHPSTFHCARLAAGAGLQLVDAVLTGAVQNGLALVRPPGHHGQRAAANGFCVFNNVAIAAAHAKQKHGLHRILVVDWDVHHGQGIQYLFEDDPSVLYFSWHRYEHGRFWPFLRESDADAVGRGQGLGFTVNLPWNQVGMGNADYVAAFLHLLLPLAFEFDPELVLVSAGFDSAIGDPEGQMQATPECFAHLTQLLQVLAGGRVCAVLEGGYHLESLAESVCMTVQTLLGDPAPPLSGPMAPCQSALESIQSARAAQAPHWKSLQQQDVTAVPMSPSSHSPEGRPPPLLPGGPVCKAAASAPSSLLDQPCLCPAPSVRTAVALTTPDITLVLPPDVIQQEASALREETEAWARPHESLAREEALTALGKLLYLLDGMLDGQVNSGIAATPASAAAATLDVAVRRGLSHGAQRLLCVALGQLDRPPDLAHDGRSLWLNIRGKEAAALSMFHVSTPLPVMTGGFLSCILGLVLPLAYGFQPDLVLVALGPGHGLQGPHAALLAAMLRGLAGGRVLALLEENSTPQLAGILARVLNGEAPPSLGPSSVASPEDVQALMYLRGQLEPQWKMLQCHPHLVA
# HL-60 cells [5] = assay: Western blot analysis in HL-60 cells; type: cell-based, human; settings: 48 h; for histone H3 acetylation (Ac-H3) level: different concentrations; for expression of Rb / expression of p-Rb / expression of γ-H2AX: increasing concentration
# HDAC8 = molecular target: T3, HDAC8 (Homo sapiens, UniProt Q9BY41); assay: In vitro HDAC8 inhibition assay; type: biochemical; settings: for IC50 HDAC8: mean ± SEM of three independent assays
# T3 sequence (Q9BY41 1-377): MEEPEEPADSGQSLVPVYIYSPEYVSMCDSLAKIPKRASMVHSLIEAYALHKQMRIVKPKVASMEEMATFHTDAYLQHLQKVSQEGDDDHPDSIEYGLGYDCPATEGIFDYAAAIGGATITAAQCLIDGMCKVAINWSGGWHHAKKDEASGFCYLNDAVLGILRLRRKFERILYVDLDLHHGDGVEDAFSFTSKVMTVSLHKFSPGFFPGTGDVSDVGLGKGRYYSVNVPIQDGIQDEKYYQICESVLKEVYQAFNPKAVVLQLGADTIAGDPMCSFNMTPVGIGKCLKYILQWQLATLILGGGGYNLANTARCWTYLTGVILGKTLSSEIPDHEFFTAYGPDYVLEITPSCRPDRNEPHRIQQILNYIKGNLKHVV
# HL-60 cells [6] = assay: Cell apoptosis detection; type: cell-based, human; settings: HL-60, 48 h
# Sequence of HDAC1 (Q13547 whole entry): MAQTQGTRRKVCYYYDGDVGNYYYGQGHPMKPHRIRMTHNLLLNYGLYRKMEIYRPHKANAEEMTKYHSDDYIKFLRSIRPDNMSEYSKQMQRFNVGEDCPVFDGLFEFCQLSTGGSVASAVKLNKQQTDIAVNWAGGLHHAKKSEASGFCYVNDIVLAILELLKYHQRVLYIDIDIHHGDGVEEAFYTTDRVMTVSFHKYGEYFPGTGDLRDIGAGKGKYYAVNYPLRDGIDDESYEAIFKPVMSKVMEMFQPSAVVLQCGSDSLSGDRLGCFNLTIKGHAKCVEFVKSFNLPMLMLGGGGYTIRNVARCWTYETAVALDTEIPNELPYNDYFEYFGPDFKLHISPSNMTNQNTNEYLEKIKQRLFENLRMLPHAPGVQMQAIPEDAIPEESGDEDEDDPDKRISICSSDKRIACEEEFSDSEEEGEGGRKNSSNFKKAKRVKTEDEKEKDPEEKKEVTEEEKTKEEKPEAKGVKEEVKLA
# Sequence of HDAC3 (O15379 whole entry): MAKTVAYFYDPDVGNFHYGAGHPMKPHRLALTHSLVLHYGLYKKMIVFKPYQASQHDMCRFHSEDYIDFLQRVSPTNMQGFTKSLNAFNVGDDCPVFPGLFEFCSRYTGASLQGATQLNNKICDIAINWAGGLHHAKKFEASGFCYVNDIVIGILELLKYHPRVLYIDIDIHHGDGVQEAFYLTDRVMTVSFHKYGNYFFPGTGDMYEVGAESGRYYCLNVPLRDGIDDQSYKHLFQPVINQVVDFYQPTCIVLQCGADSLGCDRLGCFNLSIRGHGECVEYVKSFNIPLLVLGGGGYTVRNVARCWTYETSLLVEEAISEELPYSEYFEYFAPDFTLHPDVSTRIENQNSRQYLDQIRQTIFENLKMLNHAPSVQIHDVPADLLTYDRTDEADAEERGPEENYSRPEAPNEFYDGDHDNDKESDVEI
# Sequence of HDAC3 (Q9Y618 395-489 partner limits assumed): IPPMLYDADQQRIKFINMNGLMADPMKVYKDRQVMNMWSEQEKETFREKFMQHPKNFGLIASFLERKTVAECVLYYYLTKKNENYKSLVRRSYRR
compound,measurement,setting,value
"Nc1cc(F)ccc1NC(=O)c1ccc(Cl)c2c(=O)c3cccc([N+](=O)[O-])c3[nH]c12 [Compound 8a, N-(2-amino-4-fluorophenyl)-1-chloro-5-nitro-9-oxo-9,10-dihydroacridine-4-carboxamide]",IC50 HDAC1,HDAC1,completely lost
"COc1cccc2c(=O)c3c(Cl)ccc(C(=O)NCCCCCCC(=O)Nc4ccc(F)cc4N)c3[nH]c12 [Compound 11d, N-(7-((2-amino-4-fluorophenyl)amino)-7-oxoheptyl)-1-chloro-5-methoxy-9-oxo-9,10-dihydroacridine-4-carboxamide]",IC50,[1],7510 ± 740 nM
same,IC50,HDAC1,247 ± 38 nM
same,SI (selectivity index),HDAC1,>40.5
same,IC50,[2],10200 ± 3200 nM
"COc1cccc2c(=O)c3c(Cl)ccc(C(=O)NCCCCCCC(=O)Nc4ccccc4N)c3[nH]c12 [Compound 11c, N-(7-((2-aminophenyl)amino)-7-oxoheptyl)-1-chloro-5-methoxy-9-oxo-9,10-dihydroacridine-4-carboxamide]",IC50,[1],4210 ± 570 nM
same,IC50,HDAC1,87 ± 3 nM
same,SI (selectivity index),HDAC1,>114.9
same,IC50 HDAC6,HDAC6,no inhibitory effect; also recorded: no inhibitory activity
same,IC50,HDAC3,225 ± 9 nM
same,proportion of cells in S phase,HL-60 cells [3]; 0.2 μM,48.4%
same,proportion of cells in S phase,HL-60 cells [3]; 1 μM,52.7%
same,proportion of cells in S phase,HL-60 cells [3]; 5 μM,58.4%
same,IC50,[4],7190 ± 1520 nM
same,SI (selectivity index),[4],5.8
same,IC50,HDAC10,177 ± 8 nM
same,histone H3 acetylation (Ac-H3) level,HL-60 cells [5],significantly induced histone H3 acetylation
same,expression of Rb,HL-60 cells [5],significantly down-regulated
same,expression of p-Rb,HL-60 cells [5],significantly down-regulated
same,expression of γ-H2AX,HL-60 cells [5],up-regulated
same,IC50,[2],1240 ± 80 nM
same,IC50,HDAC8,> 5000 nM
same,IC50 HDAC8,HDAC8,no inhibitory effect; also recorded: no inhibitory activity
same,proportion of apoptotic cells,HL-60 cells [6]; 5 μM,70.3%
"Cc1c(C(=O)Nc2ccc(Br)cc2N)cc(Br)c2c(=O)c3ccccc3[nH]c12 [Compound 16b, N-(2-amino-4-bromophenyl)-1-bromo-4-methyl-9-oxo-9,10-dihydroacridine-3-carboxamide]",IC50 HDAC1,HDAC1,completely lost
"COc1cccc2c(=O)c3c(Cl)ccc(C(=O)NCCCCCC(=O)Nc4ccccc4N)c3[nH]c12 [Compound 11b, N-(6-((2-aminophenyl)amino)-6-oxohexyl)-1-chloro-5-methoxy-9-oxo-9,10-dihydroacridine-4-carboxamide]",IC50,[1],3170 ± 260 nM
same,IC50,HDAC1,227 ± 9 nM
same,SI (selectivity index),HDAC1,>44.1
same,IC50 HDAC6,HDAC6,no inhibitory effect; also recorded: no inhibitory activity
same,IC50,HDAC3,418 ± 40 nM
same,proportion of cells in S phase,HL-60 cells [3]; 0.1 μM,49.1%
same,proportion of cells in S phase,HL-60 cells [3]; 0.5 μM,50.4%
same,proportion of cells in S phase,HL-60 cells [3]; 2.5 μM,59.2%
same,IC50,[4],5000 ± 330 nM
same,SI (selectivity index),[4],8.9
same,IC50,HDAC10,387 ± 64 nM
same,histone H3 acetylation (Ac-H3) level,HL-60 cells [5],significantly induced histone H3 acetylation
same,expression of Rb,HL-60 cells [5],significantly down-regulated
same,expression of p-Rb,HL-60 cells [5],significantly down-regulated
same,expression of γ-H2AX,HL-60 cells [5],up-regulated
same,IC50,[2],560 ± 30 nM
same,IC50,HDAC8,> 5000 nM
same,IC50 HDAC8,HDAC8,no inhibitory effect; also recorded: no inhibitory activity
same,proportion of apoptotic cells,HL-60 cells [6]; 2.5 μM,85.8%
"Cc1c(C(=O)Nc2ccccc2N)cc(Br)c2c(=O)c3ccccc3[nH]c12 [Compound 16a, N-(2-aminophenyl)-1-bromo-4-methyl-9-oxo-9,10-dihydroacridine-3-carboxamide]",IC50 HDAC1,HDAC1,completely lost
"COc1cccc2c(=O)c3c(Cl)ccc(C(=O)NCCCC(=O)Nc4ccccc4N)c3[nH]c12 [Compound 11a, N-(4-((2-aminophenyl)amino)-4-oxobutyl)-1-chloro-5-methoxy-9-oxo-9,10-dihydroacridine-4-carboxamide]",IC50 HCT-116 cells,"[1]; MTT, 72 h, mean ± SEM of three assays, NA: IC50 not apparent even with the compound tested >50 μM",no anti-proliferation activity
same,IC50,HDAC1,4090 ± 273 nM
same,SI (selectivity index),HDAC1,>2.4
same,IC50,[2],13200 ± 2430 nM
"Nc1cc(F)ccc1NC(=O)c1ccc(CNC(=O)/C=C/c2cccnc2)cc1 [Chidamide, chidamide, reference compound]",IC50,[1],3860 ± 1080 nM
same,IC50,[4],8870 ± 930 nM
same,IC50,HDAC10,259 ± 23 nM
same,IC50,[2],860 ± 70 nM
